pEC50: −log10 of the molar value.
Columns and labels:
rhinovirus B14 [1] = assay: Cytotoxic activity against HRV-14 in cell culture; format: functional, rhinovirus 14; conditions: Rhinovirus B
HeLa = assay: Compound was tested for antiviral activity against HRV-2 in cell culture; format: functional, cell-based; conditions: Homo sapiens
[2] = target: T1, Human rhinovirus A protease (Human rhinovirus sp.) (UniProt Q4U254); assay: Binding affinity on human Rhinovirus 3C protease (rhinovirus serotype 14)
T1 sequence (whole entry): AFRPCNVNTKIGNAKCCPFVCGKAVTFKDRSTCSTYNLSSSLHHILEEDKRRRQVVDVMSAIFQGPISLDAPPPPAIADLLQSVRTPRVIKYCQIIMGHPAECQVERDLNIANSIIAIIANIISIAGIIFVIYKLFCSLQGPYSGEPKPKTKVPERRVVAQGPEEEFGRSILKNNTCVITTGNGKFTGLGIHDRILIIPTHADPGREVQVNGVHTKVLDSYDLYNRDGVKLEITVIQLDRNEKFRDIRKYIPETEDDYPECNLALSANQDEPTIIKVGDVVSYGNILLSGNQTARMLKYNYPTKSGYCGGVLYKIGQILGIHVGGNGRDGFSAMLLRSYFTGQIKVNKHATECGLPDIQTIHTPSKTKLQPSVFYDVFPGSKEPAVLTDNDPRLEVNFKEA

[3] = target: T1, Human rhinovirus A protease (Human rhinovirus sp.); assay: Binding affinity on human Rhinovirus 3C protease (rhinovirus serotype 16)
[4] = target: T1, Human rhinovirus A protease (Human rhinovirus sp.); assay: (§1) Binding affinity on human Rhinovirus 3C protease (rhinovirus serotype 2)
rhinovirus B14 [5] = assay: Antiviral activity against HRV-14 in cell culture; format: functional, organism-based; conditions: Rhinovirus B
[6] = target: T1, Human rhinovirus A protease (Human rhinovirus sp.); assay: Binding affinity on human Rhinovirus 3C protease (rhinovirus serotype 14); Slow
[7] = target: T1, Human rhinovirus A protease (Human rhinovirus sp.); assay: as §1; format: functional

Row | SMILES | CC50 (rhinovirus B14 [1]) | pEC50 (HeLa) | K obs / 1 [2] | K obs / 1 [3] | K obs / 1 [4] | pEC50 (rhinovirus B14 [5]) | K obs / 1 [6] | K obs / 1 [7]
1 | CCOC(=O)/C=C/[C@H](CCC(N)=O)NC(=O)[C@H](Cc1ccccc1)NC(=O)[C@H](CC(C)C)NC(=O)SCc1ccccc1 | 320 µM | 5.72 | 280000 M⁻¹ s⁻¹ | 75000 M⁻¹ s⁻¹ | 28400 M⁻¹ s⁻¹ | 6.57 | – | –
2 | CCOC(=O)/C=C/[C@H](CCC(N)=O)NC(=O)[C@H](Cc1ccc(C)cc1)NC(=O)[C@H](CC(C)C)NC(=O)OCc1ccccc1 | > 320 µM | – | 59400 M⁻¹ s⁻¹ | 5300 M⁻¹ s⁻¹ | 1400 M⁻¹ s⁻¹ | 6.74 | – | –
3 | CCOC(=O)/C=C/[C@H](CCC(N)=O)NC(=O)CNC(=O)[C@H](CC(C)C)NC(=O)OCc1ccccc1 | > 320 µM | – | – | – | – | 3.85 | Slow | –
4 | CCOC(=O)/C=C/[C@H](CCC(N)=O)NC(=O)[C@H](Cc1ccccc1)NC(=O)[C@H](CC(C)C)NC(=O)SCC | > 320 µM | 6.00 | 91300 M⁻¹ s⁻¹ | 20000 M⁻¹ s⁻¹ | 8900 M⁻¹ s⁻¹ | 6.34 | – | –
5 | CCC[C@H](NC(=O)[C@H](CC(C)C)NC(=O)OCc1ccccc1)C(=O)N[C@H](/C=C/C(=O)OCC)CCC(N)=O | > 320 µM | – | 2300 M⁻¹ s⁻¹ | 1200 M⁻¹ s⁻¹ | 600 M⁻¹ s⁻¹ | 5.30 | – | –
6 | CCOC(=O)/C=C/[C@H](CCC(N)=O)NC(=O)[C@H](Cc1ccc(CCO)cc1)NC(=O)[C@H](CC(C)C)NC(=O)OCc1ccccc1 | > 320 µM | – | 43100 M⁻¹ s⁻¹ | 1300 M⁻¹ s⁻¹ | 700 M⁻¹ s⁻¹ | 5.46 | – | –
7 | CCOC(=O)/C=C/[C@H](CCC(N)=O)NC(=O)[C@H](Cc1ccc(F)cc1)NC(=O)[C@H](CC(C)C)NC(=O)OCc1ccccc1 | > 320 µM | 5.25 | 46000 M⁻¹ s⁻¹ | 9200 M⁻¹ s⁻¹ | 2400 M⁻¹ s⁻¹ | 5.74 | – | –
8 | CCOC(=O)/C=C/[C@H](CCC(N)=O)NC(=O)[C@H](CC(C)C)NC(=O)[C@H](CC(C)C)NC(=O)OCc1ccccc1 | > 320 µM | – | 2300 M⁻¹ s⁻¹ | – | – | 5.27 | – | –
9 | CCOC(=O)/C=C/[C@H](CCC(N)=O)NC(=O)[C@H](Cc1ccccc1)NC(=O)[C@H](CC(C)C)NC(=O)CCO | > 320 µM | – | 4500 M⁻¹ s⁻¹ | – | – | 4.72 | – | –
10 | CCOC(=O)/C=C/[C@H](CCC(=O)NC)NC(=O)[C@H](Cc1ccccc1)NC(=O)[C@H](CC(C)C)NC(=O)OCc1ccccc1 | > 100 µM | – | 750 M⁻¹ s⁻¹ | – | – | 5.25 | – | –
11 | CCOC(=O)/C=C/[C@H](CCC(N)=O)NC(=O)C(NC(=O)[C@H](CC(C)C)NC(=O)OCc1ccccc1)[C@H](C)O (stereo partly specified) | > 320 µM | – | 1800 M⁻¹ s⁻¹ | – | – | 4.25 | – | –
12 | CCOC(=O)/C=C/[C@H](CCC(N)=O)NC(=O)[C@H](Cc1ccccc1)NC(=O)[C@H](CC(C)C)NC(=O)OC | > 320 µM | – | 9100 M⁻¹ s⁻¹ | – | – | 5.89 | – | –
13 | CCOC(=O)/C=C/[C@H](CCC(N)=O)NC(=O)OCc1ccccc1 | > 100 µM | – | 4.5 M⁻¹ s⁻¹ | – | – | < 4.00 | – | –
14 | CCOC(=O)/C=C/[C@H](CCC(N)=O)NC(=O)[C@H](Cc1ccccc1)NC(=O)[C@H](CC(C)C)NC(=O)c1ccccc1 | > 320 µM | – | 9600 M⁻¹ s⁻¹ | – | – | 5.28 | – | –
15 | CCOC(=O)/C=C/[C@H](CCC(N)=O)NC(=O)[C@H](CC1CCCCC1)NC(=O)[C@H](CC(C)C)NC(=O)OCc1ccccc1 | > 320 µM | – | 16300 M⁻¹ s⁻¹ | 3500 M⁻¹ s⁻¹ | – | 5.72 | – | 700 M⁻¹ s⁻¹
16 | CCOC(=O)/C=C/[C@H](CCC(N)=O)NC(=O)[C@H](Cc1ccccc1)NC(=O)[C@H](CSCc1ccccc1)NC(=O)OCc1ccccc1 | > 100 µM | – | 97000 M⁻¹ s⁻¹ | – | – | 6.70 | – | –
17 | CCOC(=O)/C=C/[C@H](CCC(N)=O)NC(=O)[C@H](Cc1ccccc1)NC(=O)[C@H](C)NC(=O)OCc1ccccc1 | > 320 µM | – | 11300 M⁻¹ s⁻¹ | – | – | 5.70 | – | –
18 | CCOC(=O)/C=C/[C@H](CCC(N)=O)NC(=O)[C@H](Cc1ccccc1)NC(=O)[C@H](CC(C)C)NC(=O)C(C)C | > 320 µM | – | 18800 M⁻¹ s⁻¹ | – | – | 6.00 | – | –
19 | CCOC(=O)/C=C/[C@H](CCC(N)=O)NC(=O)[C@H](Cc1ccccc1)NC(=O)[C@H](CC(C)C)NC(=O)SC | > 320 µM | – | 69800 M⁻¹ s⁻¹ | – | – | 5.96 | – | –
20 | CCOC(=O)/C=C/[C@H](CCC(N)=O)NC(=O)[C@H](Cc1ccccc1)NC(=O)[C@H](CC(C)C)NC(=O)c1ccc2ccccc2c1 | > 320 µM | – | 21000 M⁻¹ s⁻¹ | – | – | 6.00 | – | –
21 | CCOC(=O)/C=C/[C@H](CCC(N)=O)NC(=O)[C@H](CC)NC(=O)[C@H](CC(C)C)NC(=O)OCc1ccccc1 | > 320 µM | – | 4500 M⁻¹ s⁻¹ | – | – | 5.22 | – | –
22 | CCOC(=O)/C=C/[C@H](CCC(N)=O)NC(=O)[C@H](Cc1ccccc1)NC(=O)[C@H](CC(C)C)NC(=O)N(C)Cc1ccccc1 | > 100 µM | – | 3200 M⁻¹ s⁻¹ | – | – | 5.25 | – | –

Row | SMILES | CC50 (rhinovirus B14 [1]) | pEC50 (HeLa) | K obs / 1 [2] | K obs / 1 [3] | K obs / 1 [4] | pEC50 (rhinovirus B14 [5]) | K obs / 1 [6] | K obs / 1 [7]
23 | CCOC(=O)/C=C/[C@H](CCC(N)=O)NC(=O)[C@H](Cc1ccc(C#N)cc1)NC(=O)[C@H](CC(C)C)NC(=O)OCc1ccccc1 | > 320 µM | – | 10800 M⁻¹ s⁻¹ | – | – | 5.25 | – | –
24 | CCOC(=O)/C=C/[C@H](CCC(N)=O)NC(=O)[C@H](Cc1ccc(OC)cc1)NC(=O)[C@H](CC(C)C)NC(=O)OCc1ccccc1 | > 320 µM | 4.85 | 29000 M⁻¹ s⁻¹ | 3400 M⁻¹ s⁻¹ | 1100 M⁻¹ s⁻¹ | 5.77 | – | –
25 | CCOC(=O)/C=C/[C@H](CCC(N)=O)NC(=O)[C@H](Cc1ccccc1)NC(=O)[C@H](CC(=O)N(C)C)NC(=O)OCc1ccccc1 | > 320 µM | – | 22600 M⁻¹ s⁻¹ | – | – | 5.23 | – | –
26 | CCOC(=O)/C=C/[C@H](CCC(N)=O)NC(=O)[C@H](Cc1ccc(OP(=O)(O)O)cc1)NC(=O)[C@H](CC(C)C)NC(=O)OCc1ccccc1 | > 320 µM | – | 1200 M⁻¹ s⁻¹ | – | – | 4.85 | – | –
27 | CCOC(=O)/C=C/[C@H](CCC(N)=O)NC(=O)[C@H](Cc1ccccc1)NC(=O)[C@H](CO)NC(=O)OCc1ccccc1 | > 320 µM | – | 39900 M⁻¹ s⁻¹ | – | – | 5.74 | – | –
28 | CCOC(=O)/C=C/[C@H](CCC(N)=O)NC(=O)[C@H](Cc1ccccc1)NC(=O)[C@@H](NC(=O)OCc1ccccc1)C(C)(C)CO | > 100 µM | – | 40000 M⁻¹ s⁻¹ | – | – | 5.89 | – | –
29 | CCOC(=O)/C=C/[C@H](CCC(N)=O)NC(=O)[C@H](Cc1ccccc1)NC(=O)[C@@H](NC(=O)OCc1ccccc1)[C@@H](C)CC | > 100 µM | – | 31700 M⁻¹ s⁻¹ | – | – | 6.10 | – | –
30 | CCOC(=O)/C=C/[C@H](CCC(N)=O)NC(=O)[C@H](Cc1ccccc1)NC(=O)[C@H](CC(C)C)NC(=O)[C@@H](NC(C)=O)[C@@H](C)O | > 100 µM | – | 4600 M⁻¹ s⁻¹ | – | – | < 4.00 | – | –
31 | CCOC(=O)/C=C/[C@H](CCC(N)=O)NC(=O)[C@H](Cc1ncc[nH]1)NC(=O)[C@H](CC(C)C)NC(=O)OCc1ccccc1 | > 320 µM | – | 6800 M⁻¹ s⁻¹ | – | – | 4.57 | – | –
32 | CCOC(=O)/C=C/[C@H](CCC(=O)NC(c1ccccc1)(c1ccccc1)c1ccccc1)NC(=O)[C@H](Cc1ccccc1)NC(=O)[C@H](CC(C)C)NC(=O)OCc1ccccc1 | > 320 µM | – | 0 M⁻¹ s⁻¹ | – | – | 4.00 | – | –
33 | CCOC(=O)/C=C/[C@H](CCC(N)=O)NC(=O)[C@H](Cc1ccccc1)NC(=O)[C@H](CC(C)C)NC(=O)OCc1ccccc1Cl | > 100 µM | – | 19000 M⁻¹ s⁻¹ | – | – | 6.20 | – | –
34 | CCOC(=O)/C=C/[C@H](CCC(N)=O)NC(=O)[C@H](Cc1cccs1)NC(=O)[C@H](CC(C)C)NC(=O)OCc1ccccc1 | > 100 µM | – | 20000 M⁻¹ s⁻¹ | 4500 M⁻¹ s⁻¹ | 1800 M⁻¹ s⁻¹ | 6.25 | – | –
35 | CCOC(=O)/C=C/[C@H](CCC(N)=O)NC(=O)[C@H](Cc1ccccc1)NC(=O)[C@H](CC(C)C)NC(=O)C1CCCC1 | > 320 µM | – | 23700 M⁻¹ s⁻¹ | – | – | 6.22 | – | –
36 | CCOC(=O)/C=C/[C@H](CNC(N)=O)NC(=O)[C@H](Cc1ccccc1)NC(=O)[C@H](CC(C)C)NC(=O)OCc1ccccc1 | > 100 µM | – | 3500 M⁻¹ s⁻¹ | – | – | 4.49 | – | –
37 | CCOC(=O)/C=C/[C@H](CCC(N)=O)NC(=O)[C@H](Cc1ccc(CO)cc1)NC(=O)[C@H](CC(C)C)NC(=O)OCc1ccccc1 | > 320 µM | – | 82300 M⁻¹ s⁻¹ | – | – | 6.26 | – | –
38 | CCOC(=O)/C=C/[C@H](CCC(N)=O)NC(=O)[C@H](Cc1ccc(COC)cc1)NC(=O)[C@H](CC(C)C)NC(=O)OCc1ccccc1 | > 320 µM | – | 7100 M⁻¹ s⁻¹ | – | – | 4.41 | – | –
39 | CCOC(=O)/C=C/[C@H](CCC(N)=O)NC(=O)[C@H](Cc1ccccc1)NC(=O)[C@H](CCCCN)NC(=O)OCc1ccccc1 | > 320 µM | – | 18600 M⁻¹ s⁻¹ | – | – | 3.69 | – | –
40 | CCOC(=O)/C=C/[C@H](CCC(N)=O)NC(=O)[C@H](Cc1ccccc1)NC(=O)[C@@H](NC(=O)OCc1ccccc1)C1CCCCC1 | > 100 µM | – | 36200 M⁻¹ s⁻¹ | – | – | 6.00 | – | –
41 | CCOC(=O)/C=C/[C@H](CCC(N)=O)NC(=O)[C@H](Cc1ccccc1)NC(=O)[C@H](CC(C)C)NC(=O)[C@@H](NC(C)=O)C(C)C | > 100 µM | – | 26700 M⁻¹ s⁻¹ | – | – | 4.20 | – | –
42 | CCOC(=O)/C=C/[C@H](CCC(N)=O)NC(=O)[C@H](Cc1ccccc1)NC(=O)[C@H](CC(C)C)NC(=O)OC(C)(C)C | > 100 µM | – | 700 M⁻¹ s⁻¹ | – | – | 5.35 | – | –
43 | CCOC(=O)/C=C/[C@H](CCC(N)=O)NC(=O)[C@H](Cc1ccccc1)NC(=O)[C@H](CC1CCCCC1)NC(=O)OCc1ccccc1 | > 320 µM | – | 39000 M⁻¹ s⁻¹ | – | – | 5.92 | – | –
